Experiment [1] deals with thapsigargin-induced IFN-g production in human whole blood. It is filed as cell-based.
For experiment [2], the system named is thapsigargin-induced IL-2 production in human whole blood.
Setting [3] is: read-out: Analogue Activity (IC50) WB/IFNg.
Where [4] appears, read: read-out: Analogue Activity (IC50) WB/IL-2.

Read-outs that look alike come from different tables or passages of the source. Bridge positions count the residues as written; N and C are the ends. Square brackets hold non-standard residues; d marks the D form. Peptide text beside a SMILES is read from it. 1Nal = N[C@@H](Cc1cccc2ccccc12)C(=O)O

As to `CC[C@H](C)[C@@H]1NC(=O)[C@H](CCCCN)NC(=O)[C@@H](NC(=O)[C@H](CCCCN)NC(=O)[C@@H](NC(=O)[C@H](CC(N)=O)NC(=O)[C@@H](NC(=O)[C@@H](NC(=O)[C@@H](NC(=O)CN)C(C)C)[C@@H](C)CC)[C@@H](C)CC)C(C)C)CSSC[C@@H]2NC(=O)[C@H](CCCCN)NC(=O)CNC(=O)[C@H](Cc3ccccc3)NC(=O)[C@H](CCCNC(=N)N)NC(=O)[C@H](CCSC)NC(=O)CNC(=O)[C@H](C)NC(=O)[C@H](CCCCN)NC(=O)[C@H](CCCNC(=N)N)NC(=O)[C@@H]3CSSC[C@@H](C(=O)N[C@H](C(=O)N4CCC[C@H]4C(=O)N[C@@H](CCCCN)C(=O)O)[C@@H](C)O)NC(=O)[C@H](Cc4c[nH]cn4)NC(=O)[C@H](CSSC[C@H](NC(=O)[C@H](CCC(N)=O)NC(=O)[C@H](CCCNC(=N)N)NC(=O)[C@H](CO)NC1=O)C(=O)N[C@@H](CC(C)C)C(=O)N[C@@H](CCC(=O)O)C(=O)N1CCC[C@H]1C(=O)N3)NC(=O)[C@H](CCCCN)NC(=O)CNC(=O)[C@H](CC(N)=O)NC(=O)[C@H](CCSC)NC2=O` [K19R] (H-GVIINVKCKISRQCLEPCRKAGMRFGKCMNGKCHCTPK-OH; disulfide 8-28, 14-33, 18-35), the IC50 in experiment [1] (setting [3]) turned out to be 0.062 nM; in experiment [2] (setting [4]) it was 0.044 nM.
In the case of `CC[C@H](C)[C@@H]1NC(=O)[C@H](CCCCN)NC(=O)[C@@H](NC(=O)[C@H](CCCCN)NC(=O)[C@@H](NC(=O)[C@H](CC(N)=O)NC(=O)[C@@H](NC(=O)[C@@H](NC(=O)[C@@H](NC(=O)CN)C(C)C)[C@@H](C)CC)[C@@H](C)CC)C(C)C)CSSC[C@@H]2NC(=O)[C@H](CCCCN)NC(=O)CNC(=O)[C@H](Cc3ccccc3)NC(=O)[C@H](CCCNC(=N)N)NC(=O)[C@H](CCSC)NC(=O)CNC(=O)[C@H](C)NC(=O)[C@H](CCCCN)NC(=O)[C@H](CCCCN)NC(=O)[C@@H]3CSSC[C@@H](C(=O)N[C@H](C(=O)N4CCC[C@H]4C(=O)N[C@@H](CCCCN)C(=O)O)[C@@H](C)O)NC(=O)[C@H](Cc4c[nH]cn4)NC(=O)[C@H](CSSC[C@H](NC(=O)[C@H](CCC(N)=O)NC(=O)[C@H](CCCNC(=N)N)NC(=O)[C@H](CO)NC1=O)C(=O)N[C@@H](CC(C)C)C(=O)N[C@@H](CCCNC(=N)N)C(=O)N1CCC[C@H]1C(=O)N3)NC(=O)[C@H](CCCCN)NC(=O)CNC(=O)[C@H](CC(N)=O)NC(=O)[C@H](CCSC)NC2=O` [E16R] (H-GVIINVKCKISRQCLRPCKKAGMRFGKCMNGKCHCTPK-OH; disulfide 8-28, 14-33, 18-35), the IC50 in experiment [1] (setting [3]) stood at 0.454 nM; in experiment [2] (setting [4]), 0.556 nM.
On to `CC[C@H](C)[C@@H]1NC(=O)[C@H](CCCCN)NC(=O)[C@@H](NC(=O)[C@H](CCCCN)NC(=O)[C@@H](NC(=O)[C@H](CC(N)=O)NC(=O)[C@@H](NC(=O)[C@@H](NC(=O)[C@@H](NC(=O)CN)C(C)C)[C@@H](C)CC)[C@@H](C)CC)C(C)C)CSSC[C@@H]2NC(=O)[C@H](CCCCN)NC(=O)CNC(=O)[C@H](Cc3ccccc3)NC(=O)[C@H](CCCNC(=N)N)NC(=O)[C@H](CCSC)NC(=O)CNC(=O)[C@H](C)NC(=O)[C@H](CCCCN)NC(=O)[C@H](CCCCN)NC(=O)[C@@H]3CSSC[C@@H](C(=O)N[C@H](C(=O)N4CCC[C@H]4C(=O)N[C@@H](CCCCN)C(=O)O)[C@@H](C)O)NC(=O)[C@H](Cc4c[nH]cn4)NC(=O)[C@H](CSSC[C@H](NC(=O)[C@H](CCC(N)=O)NC(=O)[C@H](CCCNC(=N)N)NC(=O)[C@H](CO)NC1=O)C(=O)N[C@@H](CC(C)C)C(=O)N[C@@H](CCC(=O)O)C(=O)N1CCC[C@H]1C(=O)N3)NC(=O)[C@H](CCC(=O)O)NC(=O)CNC(=O)[C@H](CC(N)=O)NC(=O)[C@H](CCSC)NC2=O` [K32E] (H-GVIINVKCKISRQCLEPCKKAGMRFGKCMNGECHCTPK-OH; disulfide 8-28, 14-33, 18-35), for which the IC50 came to 0.063 nM in experiment [1] (setting [3]) and 0.062 nM in experiment [2] (setting [4]).
“GVIINVKCKISRQCLEPCKKAGMRAGKCMNGKCHCTPK [Ala-25 (SEQ ID No: 1421)]”: the IC50 in experiment [1] (read-out: Average IC50 IFNg) and in experiment [2] (read-out: Average IC50 IL-2) was 3.08 nM each time.
Consider `CC[C@H](C)[C@@H]1NC(=O)[C@H](CCCCN)NC(=O)[C@@H](NC(=O)[C@H](CCC(=O)O)NC(=O)[C@@H](NC(=O)[C@H](CC(N)=O)NC(=O)[C@@H](NC(=O)[C@@H](NC(=O)[C@@H](NC(=O)CN)C(C)C)[C@@H](C)CC)[C@@H](C)CC)C(C)C)CSSC[C@@H]2NC(=O)[C@H](CCCCN)NC(=O)CNC(=O)[C@H](Cc3ccccc3)NC(=O)[C@H](CCCNC(=N)N)NC(=O)[C@H](CCSC)NC(=O)CNC(=O)[C@H](C)NC(=O)[C@H](CCCCN)NC(=O)[C@H](CCCCN)NC(=O)[C@@H]3CSSC[C@@H](C(=O)N[C@H](C(=O)N4CCC[C@H]4C(=O)N[C@@H](CCCCN)C(=O)O)[C@@H](C)O)NC(=O)[C@H](Cc4c[nH]cn4)NC(=O)[C@H](CSSC[C@H](NC(=O)[C@H](CCC(N)=O)NC(=O)[C@H](CCCNC(=N)N)NC(=O)[C@H](CO)NC1=O)C(=O)N[C@@H](CC(C)C)C(=O)N[C@@H](CCC(=O)O)C(=O)N1CCC[C@H]1C(=O)N3)NC(=O)[C@H](CCCCN)NC(=O)CNC(=O)[C@H](CC(N)=O)NC(=O)[C@H](CCSC)NC2=O` [K7E] (H-GVIINVECKISRQCLEPCKKAGMRFGKCMNGKCHCTPK-OH; disulfide 8-28, 14-33, 18-35), for which the IC50 was found to be 0.068 nM in experiment [1] (setting [3]) and 0.058 nM in experiment [2] (setting [4]).
With “des1, V2G, R12A, E16K, K19R, K20D, H34A (GIINVKCKISAQCLKPCRDAGMRFGKCMNGKCACTPK)”, the IC50 in experiment [1] (read-out: WB/IFNg (IC50)) was 2.24 nM; in experiment [2] (read-out: WB/IL-2 (IC50)) it was 1.5 nM.
In the case of `CC[C@H](C)[C@@H]1NC(=O)[C@H](CCCCN)NC(=O)[C@@H](NC(=O)[C@H](CCCCN)NC(=O)[C@@H](NC(=O)[C@H](CC(N)=O)NC(=O)[C@@H](NC(=O)[C@H](CCC(=O)O)NC(=O)[C@@H](NC(=O)CN)C(C)C)[C@@H](C)CC)C(C)C)CSSC[C@@H]2NC(=O)[C@H](CCCCN)NC(=O)CNC(=O)[C@H](Cc3ccccc3)NC(=O)[C@H](CCCNC(=N)N)NC(=O)[C@H](CCSC)NC(=O)CNC(=O)[C@H](C)NC(=O)[C@H](CCCCN)NC(=O)[C@H](CCCCN)NC(=O)[C@@H]3CSSC[C@@H](C(=O)N[C@H](C(=O)N4CCC[C@H]4C(=O)N[C@@H](CCCCN)C(=O)O)[C@@H](C)O)NC(=O)[C@H](Cc4c[nH]cn4)NC(=O)[C@H](CSSC[C@H](NC(=O)[C@H](CCC(N)=O)NC(=O)[C@H](CCCNC(=N)N)NC(=O)[C@H](CO)NC1=O)C(=O)N[C@@H](CC(C)C)C(=O)N[C@@H](CCC(=O)O)C(=O)N1CCC[C@H]1C(=O)N3)NC(=O)[C@H](CCCCN)NC(=O)CNC(=O)[C@H](CC(N)=O)NC(=O)[C@H](CCSC)NC2=O` [I3E] (H-GVEINVKCKISRQCLEPCKKAGMRFGKCMNGKCHCTPK-OH; disulfide 8-28, 14-33, 18-35), the IC50 in experiment [1] (setting [3]) stood at 0.16 nM; in experiment [2] (setting [4]) it was 0.12 nM.
With “GVIINVKCKISRQCLEPCKKAAMRFGKCMNGKCHCTPK [Ala-22 (SEQ ID No: 1418)]”, the IC50 in experiment [1] (read-out: Average IC50 IFNg) and in experiment [2] (read-out: Average IC50 IL-2) was 7.09 nM each time.
As to `CC[C@H](C)[C@@H]1NC(=O)[C@H](CCCCN)NC(=O)[C@@H](NC(=O)[C@H](CCCCN)NC(=O)[C@@H](NC(=O)[C@H](CC(N)=O)NC(=O)[C@@H](NC(=O)[C@@H](NC(=O)[C@@H](NC(=O)CN)C(C)C)[C@@H](C)CC)[C@@H](C)CC)C(C)C)CSSC[C@@H]2NC(=O)[C@H](CCCCN)NC(=O)CNC(=O)[C@H](Cc3ccccc3)NC(=O)[C@H](CCCNC(=N)N)NC(=O)[C@H](CCSC)NC(=O)CNC(=O)[C@H](C)NC(=O)[C@H](CCCCN)NC(=O)[C@H](CCCCN)NC(=O)[C@@H]3CSSC[C@@H](C(=O)N[C@H](C(=O)N[C@@H](Cc4cccc5ccccc45)C(=O)N[C@@H](CCCCN)C(=O)O)[C@@H](C)O)NC(=O)[C@H](Cc4c[nH]cn4)NC(=O)[C@H](CSSC[C@H](NC(=O)[C@H](CCC(N)=O)NC(=O)[C@H](CCCNC(=N)N)NC(=O)[C@H](CO)NC1=O)C(=O)N[C@@H](CC(C)C)C(=O)N[C@@H](CCC(=O)O)C(=O)N1CCC[C@H]1C(=O)N3)NC(=O)[C@H](CCCCN)NC(=O)CNC(=O)[C@H](CC(N)=O)NC(=O)[C@H](CCSC)NC2=O` [P37Nal] (H-GVIINVKCKISRQCLEPCKKAGMRFGKCMNGKCHCT[1Nal]K-OH; disulfide 8-28, 14-33, 18-35), the results for the IC50 in experiment [1] (setting [3]) and in experiment [2] (setting [4]) were 3.04 nM and 1.76 nM, respectively.
Taken in the same sequence, the figures for `CC[C@H](C)[C@@H]1NC(=O)[C@H](CCCCN)NC(=O)[C@@H](NC(=O)[C@H](CCCCN)NC(=O)[C@@H](NC(=O)[C@H](CC(N)=O)NC(=O)[C@@H](NC(=O)[C@@H](NC(=O)[C@@H](NC(=O)CN)C(C)C)[C@@H](C)CC)[C@@H](C)CC)C(C)C)CSSC[C@@H]2NC(=O)[C@H](CCCCN)NC(=O)CNC(=O)[C@H](Cc3ccccc3)NC(=O)[C@H](CCCNC(=N)N)NC(=O)[C@H](CCSC)NC(=O)CNC(=O)[C@H](C)NC(=O)[C@H](CCCCN)NC(=O)[C@H](C)NC(=O)[C@@H]3CSSC[C@@H](C(=O)N[C@H](C(=O)N4CCC[C@H]4C(=O)N[C@@H](CCCCN)C(=O)O)[C@@H](C)O)NC(=O)[C@H](Cc4c[nH]cn4)NC(=O)[C@H](CSSC[C@H](NC(=O)[C@H](CCC(N)=O)NC(=O)[C@H](CCCNC(=N)N)NC(=O)[C@H](CO)NC1=O)C(=O)N[C@@H](CC(C)C)C(=O)N[C@@H](CCC(=O)O)C(=O)N1CCC[C@H]1C(=O)N3)NC(=O)[C@H](CCCCN)NC(=O)CNC(=O)[C@H](CC(N)=O)NC(=O)[C@H](CCSC)NC2=O` [K19A] (H-GVIINVKCKISRQCLEPCAKAGMRFGKCMNGKCHCTPK-OH; disulfide 8-28, 14-33, 18-35) were 0.163 nM and 0.163 nM.
In the case of “GVIINVKCKISRQCLEACKKAGMRFGKCMNGKCHCTPK [Ala-17 (SEQ ID No: 1414)]”, the IC50 in experiment [1] (read-out: Average IC50 IFNg) and in experiment [2] (read-out: Average IC50 IL-2) was 0.173 nM throughout.

The values are drawn from patent US7820623B2 (priority 2006, dated 2010).
